Measurements published in ChEMBL document CHEMBL1155888, “Synthesis, inhibitory activities, and QSAR study of xanthone derivatives as alpha-glucosidase inhibitors” (Bioorg Med Chem, 2008).

Test: Inhibition of yeast alpha glucosidase in phosphate buffer after 0.5 hrs by spectrophotometry
Set-up: species or system Saccharomyces

Row | SMILES | IC50 [µM]
1 | O=c1c2cc3ccccc3cc2oc2c3c(cc(O)c12)OCCC3 | 67.3
2 | O=c1c2c(O)cc(O)cc2oc2cc(O)cc(O)c12 | 17.1
3 | O=c1c2c(O)cc(O)cc2oc2ccc3ccccc3c12 | 39.9
4 | Oc1cc(O)c2c(c1)Oc1cc3ccccc3cc1C2 | 27.8
5 | O=c1c2cc3cc(O)ccc3cc2oc2cc(O)cc(O)c12 | 5.8
6 | O=c1c2ccccc2oc2cc(OCCCN3CCCCC3)cc(O)c12 | 115
7 | O=c1c2ccccc2oc2cc(OCC3CO3)cc(O)c12 (stereo not drawn) | 66.6
8 | O=c1c2cc3ccccc3cc2oc2cc(OCCCBr)cc(O)c12 | 29.7
9 | O=c1c2cc(O)ccc2oc2cc(O)cc(O)c12 | 14.7
10 | CCCCOc1cc(O)c2c(=O)c3ccccc3oc2c1 | 130
11 | O=c1c2c(O)cccc2oc2cccc(O)c12 | 91.5
12 | O=c1c2ccccc2oc2cc(OCC3CCCO3)cc(O)c12 (stereo not drawn) | 53
13 | O=c1c2cc3ccccc3cc2oc2cc(O)c([N+](=O)[O-])c(O)c12 | 5.9
14 | O=c1c2cc3ccccc3cc2oc2cc(O)cc(O)c12 | 9.3
15 | Nc1c(O)cc(O)c2c(=O)c3ccccc3oc12 | 102
16 | O=c1c2ccc(O)cc2oc2cc(O)cc(O)c12 | 41.5
17 | COc1cc(O)c2c(=O)c3ccccc3oc2c1 | 173
18 | CC(=O)Oc1cc(OC(C)=O)c2c(=O)c3cc(OC(C)=O)ccc3oc2c1 | 46.5
19 | O=c1c2ccccc2oc2cc(O)cc(O)c12 | 161
20 | O=c1c2cc3ccccc3cc2oc2c([N+](=O)[O-])c(O)cc(O)c12 | 20.1
21 | O=c1c2ccc(OCC3CO3)cc2oc2cccc(O)c12 (stereo not drawn) | 63.5
22 | O=c1c2ccccc2oc2cc(OCCCN3CCN(c4cccc(Cl)c4)CC3)cc(O)c12 | 61.8

Row | SMILES | IC50 [µM]
23 | CC(=O)Oc1cc(OC(C)=O)c2c(=O)c3c(OC(C)=O)cc(OC(C)=O)cc3oc2c1 | 49.7
24 | O=c1c2ccccc2oc2cccc(O)c12 | 177
25 | CCCCCCCCCCOc1cc(O)c2c(=O)c3ccccc3oc2c1 | 116
26 | CCCCCCCCOc1cc(O)c2c(=O)c3ccccc3oc2c1 | 124
27 | CC(=O)Oc1cc(OC(C)=O)c2c(=O)c3ccccc3oc2c1 | 31.9
28 | Oc1cc(O)c2c(c1)Oc1ccc3ccccc3c1C2 | 34.9
29 | CCCCCCCOc1cc(O)c2c(=O)c3ccccc3oc2c1 | 114
30 | O=c1c2ccc(O)cc2oc2cccc(O)c12 | 131
31 | Nc1c(O)cc2oc3cc4ccccc4cc3c(=O)c2c1O | 6.3
32 | O=c1c2ccccc2oc2cc(OCCCBr)cc(O)c12 | 147
33 | O=c1c2ccccc2oc2c([N+](=O)[O-])c(O)cc(O)c12 | 235
34 | Nc1c(O)cc(O)c2c(=O)c3cc4ccccc4cc3oc12 | 8.3
35 | O=c1c2ccccc2oc2cc(OCc3ccccc3)cc(O)c12 | 98.2
36 | CC(=O)Oc1ccc2c(=O)c3c(OC(C)=O)cccc3oc2c1 | 139
37 | O=c1c2cc3cccc(O)c3cc2oc2cc(O)cc(O)c12 | 8
38 | CCOc1cc(O)c2c(=O)c3ccccc3oc2c1 | 111
39 | CCCCCOc1cc(O)c2c(=O)c3ccccc3oc2c1 | 121
40 | O=c1c2ccccc2oc2c3c(cc(O)c12)OCCC3 | 198
41 | COc1cc(O)c2c(=O)c3cc4ccccc4cc3oc2c1 | 31.3
42 | O=c1c2c(O)cccc2oc2cc(O)cc(O)c12 | 81.8
43 | O=c1c2ccc(OCCCN3CCCCC3)cc2oc2cccc(O)c12 | 133
